Results from BindingDB's records for doi:10.1021/cb700025j (Burnham Institute for Medical Research, 2007).

Columns and labels:
[1] = biological target: T1, Mitogen-activated protein kinase 14 (Homo sapiens, UniProt Q16539); experiment: Fluorescence-Based Competition Assay; conditions: pH 7
Text: The competitive binding between test compounds and a fluorescence p38 alpha inhibitor, SK&F 86002.

[2] = biological target: T1, Mitogen-activated protein kinase 14; experiment: Kinase Activity Assay; conditions: pH 7
Method: In vitro kinase activity and selectivity was determined by using SelectScreen kinase profiling Z'-LYTE assay from Invitrogen.

T1 sequence (Q16539 whole entry): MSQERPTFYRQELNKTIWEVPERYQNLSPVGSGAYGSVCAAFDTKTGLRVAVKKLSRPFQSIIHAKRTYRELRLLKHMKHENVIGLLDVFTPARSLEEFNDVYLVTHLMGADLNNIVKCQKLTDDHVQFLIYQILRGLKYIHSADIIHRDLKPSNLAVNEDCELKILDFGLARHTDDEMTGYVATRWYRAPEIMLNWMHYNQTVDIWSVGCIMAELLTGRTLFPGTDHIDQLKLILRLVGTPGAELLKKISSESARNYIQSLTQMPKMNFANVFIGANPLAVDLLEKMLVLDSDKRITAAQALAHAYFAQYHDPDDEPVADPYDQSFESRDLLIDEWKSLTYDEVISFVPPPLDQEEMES

Work on `C=C1SN(C)c2ccc(S(=O)(=O)Nc3ccccc3N3CCCCC3)cc21` [BI-12H11] yielded an IC50 [1] of 5.61 µM, an IC50 [2] of 0.71 µM and a Kd [2] of 0.76 µM.
